One test addresses T1, CB2 receptor (Homo sapiens, UniProt P34972).
T1 construct: purchased
The experiment in a line: Competition binding assay for cannabinoid CB2 affinity (3H-CP55,940 displacement, membranes). Particulars: membranes from cells expressing the receptor, 0.5 nM 3H-CP55,940; Ki by Cheng and Prusoff. Here is the method: (§1) Competition binding assays for cannabinoid CB1 and CB2 affinity were performed by incubating commercially purchased membranes prepared from cells expressing each receptor subtype (8 μg pro) with 0.5 nM ^3H-CP55,940, a non-selective cannabinoid agonist, along with concentrations of drug ranging from 0.0001-3 μM in Buffer A (5 mM MgCl2, 2.5 mM EDTA and […] BSA). Non-specific binding was defined in the presence of 10 μM CP55,940. For saturation studies, concentrations of ^3H-CP55,940 ranging from 0.1-5 nM were incubated with membranes in the presence and absence of 10 μM CP55,940. Assays were terminated after incubation for 1½ hours by rapid filtration onto 0.3% polyethylenamine treated GF/C filterplates using a BRANDEL cell harvester. The plates were dried and MICROSCINT scintillation cocktail was added, after which the bound radioactivity was quantified using a TOPCOUNT scintillation counter.
(§2) The dissociation constant (Kd) of ^3H-CP55,940 at the CB1 and CB2 receptor were determined by plotting specific binding at each concentration of radioligand, and analysis by non-linear regression. For competition studies, the concentration of each drug that inhibited 50 percent of ^3H-CP55,940 binding (IC50) was determined by non-linear regression analysis of the radioligand displacement curves. Affinity constants (Ki) were calculated using the equation derived by Cheng and Prusoff (1973), defined as: IC50/1+[conc. ligand/Kd].

The next test addresses T2, CB1 receptor (Homo sapiens, UniProt P21554).
T2 construct: purchased
The test is described as follows: Competition binding assay for cannabinoid CB1 affinity (3H-CP55,940 displacement, membranes). Particulars: membranes from cells expressing the receptor, 0.5 nM 3H-CP55,940; Ki by Cheng and Prusoff. The protocol:
as §1, §2

Some results are limits rather than exact numbers.

T2 sequence (P21554 whole entry): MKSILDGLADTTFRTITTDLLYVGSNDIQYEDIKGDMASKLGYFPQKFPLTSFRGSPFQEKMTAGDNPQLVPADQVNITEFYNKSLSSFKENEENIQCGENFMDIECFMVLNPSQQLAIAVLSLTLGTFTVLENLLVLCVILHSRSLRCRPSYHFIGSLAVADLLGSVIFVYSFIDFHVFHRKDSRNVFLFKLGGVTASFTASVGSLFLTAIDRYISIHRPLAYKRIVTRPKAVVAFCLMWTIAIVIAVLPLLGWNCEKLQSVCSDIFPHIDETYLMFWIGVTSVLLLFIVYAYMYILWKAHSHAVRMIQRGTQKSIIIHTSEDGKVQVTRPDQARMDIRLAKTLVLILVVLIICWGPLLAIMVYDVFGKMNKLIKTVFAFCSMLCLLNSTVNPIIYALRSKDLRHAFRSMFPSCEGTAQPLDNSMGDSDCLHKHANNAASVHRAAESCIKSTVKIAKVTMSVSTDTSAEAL
T1 sequence (P34972 whole entry): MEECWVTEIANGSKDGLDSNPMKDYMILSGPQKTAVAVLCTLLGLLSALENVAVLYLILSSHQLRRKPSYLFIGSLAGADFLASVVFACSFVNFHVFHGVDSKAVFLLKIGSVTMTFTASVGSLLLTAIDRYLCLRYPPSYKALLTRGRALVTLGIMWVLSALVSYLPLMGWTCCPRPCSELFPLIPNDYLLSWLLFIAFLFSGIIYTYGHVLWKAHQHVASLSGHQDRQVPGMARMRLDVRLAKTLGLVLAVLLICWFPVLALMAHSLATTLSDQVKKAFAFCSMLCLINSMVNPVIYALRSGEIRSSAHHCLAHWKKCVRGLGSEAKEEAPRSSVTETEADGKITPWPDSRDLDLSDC

`N#Cc1ccc(CNC[C@@H]2C[C@H](c3ccc(Cl)cc3)[C@H](c3ccc(Cl)cc3Cl)C2)cc1` [Compound 14]: the inhibitory constant (Ki) was greater than 1800 nM at CB2 receptor and 12.7 nM at CB1 receptor.

For `N#Cc1ccc(NC[C@@H]2C[C@H](c3ccc(Cl)cc3)[C@H](c3ccc(Cl)cc3Cl)C2)cc1` [Compound 15], the inhibition constant (Ki) was greater than 1500 nM at CB2 receptor and 1 nM on CB1 receptor.

Consider `N#Cc1ccc(NC[C@H]2C[C@H](c3ccc(Cl)cc3)[C@H](c3ccc(Cl)cc3Cl)C2)cc1` [Compound 16], for which the inhibitory constant (Ki) at CB2 receptor and at CB1 receptor was greater than 1500 nM each time.

Turning to `Fc1ccc(OC[C@@H]2C[C@H](c3ccc(Cl)cc3)[C@H](c3ccc(Cl)cc3Cl)C2)cc1F` [Compound 17], the inhibition constant (Ki) is greater than 1800 nM on CB2 receptor and 12.5 nM at CB1 receptor.

On to `N#Cc1ccc(OC[C@@H]2C[C@H](c3ccc(Cl)cc3)[C@H](c3ccc(Cl)cc3Cl)C2)cc1` [Compound 18], for which the Ki at CB2 receptor was greater than 1500 nM; at CB1 receptor, 1.86 nM.

As usually defined, the Ki is the equilibrium dissociation constant of an inhibitor or competing ligand from its target. Low readings indicate higher affinity, high ones lower affinity.

(Values after patent US20070254952A1, “CANNABINOID RECEPTOR MODULATORS” (priority 2006, published 2007).)
